Results taken from article PMC12844237, “A Novel Quinolone JH62 (E-2-(Tridec-4-en-1-yl)-quinolin-4(1H)-one) from Pseudomonas aeruginosa Exhibits Potent Anticancer Activity” (Microorganisms, 2025).

Columns and labels:
[1] = system: WI-38: human lung fibroblast cell lines; assay: WST-1 cell viability, WI-38; assay type: cell-based; conditions: WI-38, non-cancer cell line
Description: (§1) Different cells were utilized as follows: MEF: murine embryonic fibroblast (RRID: CVCL_L690); AML12: mouse liver cell lines (RRID: CVCL_0140); WI-38: human lung fibroblast cell lines (RRID: CVCL_0579); THLE-2: human liver epithelial cell lines (RRID: CVCL_3803); A549: human lung cancer cell lines (RRID: CVCL_0023); HEPG2: human liver cancer cell lines (RRID: CVCL_0027); HEP3B: human hepatoma cell lines (RRID: CVCL_0326); BxPC3: human pancreatic cancer cell lines (RRID: CVCL_0186); U87: human primary glioblastoma cell lines (RRID: CVCL_0022); DU145: human prostate cancer cell lines (RRID: CVCL_0105); MCF7: human breast cancer cell lines (RRID: CVCL_0031); HeLa: human cervical cancer cell lines (RRID: CVCL_0030); HCT116: human colon cancer cell lines (RRID: CVCL_0291). Cells were maintained in Dulbecco’s modified Eagle’s medium (DMEM, Gibco) supplemented with L-glutamine (Lonza) (2 mM), 10% fetal bovine serum (FBS, Hyclone), 1 × non-essential amino acids, and sodium pyruvate (1 mM). THLE-2 cells were maintained in THLE-2 Cell Complete Medium (Zhong Qiao Xin Zhou, Shanghai, China). Cells were incubated at 37 °C in a humidified incubator with 5% CO2. […]
(§2) Cell viability was assessed using the WST-1 assay, based on a previously reported method with slight modifications. […] Absorbance at OD450 was measured using a microplate reader (Synergy H1; BioTek Instruments, Winooski, VT, USA).

A549 cells = assay: DNA fragmentation analysis (genomic DNA electrophoresis); assay type: cell-based, human; conditions: A549, 24 h; JH62 5–100 µM, DOX 1 and 5 μM
Method: Genomic DNA fragmentation was analyzed by agarose gel electrophoresis using previously described methods. A549 cells were seeded in 6 cm tissue culture dishes and cultured overnight. Before treatment with JH62 or DOX, the cells were cultured in DMEM lacking FBS for 16 h. After treatment, the cells were then washed three times with PBS and genomic DNA was extracted using a MasterPure™ DNA Purification Kit (Lucigen Corporation, Middleton, WI, USA). The DNA pellet was airdried and resuspended in Tris-HCl (pH 8.0, 10 mM). DNA samples (2.5 μg) were separated by 1% agarose gel electrophoresis in TAE buffer containing ethidium bromide.

[2] = system: MEF: murine embryonic fibroblast; assay: WST-1 cell viability, MEF; assay type: cell-based; conditions: Mus musculus, non-cancer cell line
Description: as §1, §2

[3] = system: HEPG2: human liver cancer cell lines; assay: WST-1 cell viability, HEPG2; assay type: cell-based; conditions: HEPG2 (liver) cancer cell line
Description: as §1, §2

[4] = system: pqs gene cluster in ΔpqsA mutant strain; assay: Effect of exogenous JH62 on transcription of the pqs gene cluster; assay type: cell-based, Pseudomonas aeruginosa; conditions: ΔpqsA mutant supplemented with exogenous JH62
Description: Since the pqs gene cluster is responsible for JH62 biosynthesis, we determined whether JH62 itself could regulate the expression of this cluster, potentially establishing a feedback loop. To this end, we supplemented the JH62-deficient ΔpqsA mutant with exogenous JH62 and assessed the pqs cluster transcription.

[5] = system: THLE-2: human liver epithelial cell lines; assay: WST-1 cell viability, THLE-2; assay type: cell-based; conditions: THLE-2, non-cancer cell line
Description: as §1, §2

LC3B in A549 cells = assay: Immunofluorescence staining for LC3B; assay type: cell-based, human; conditions: A549, JH62 over 2–24 h
Description: We next investigated whether autophagy contributes to JH62-induced cell death.

A549 lung cancer cells = assay: Cell death inhibitor rescue (zVAD-fmk, Nec-1); assay type: cell-based, human; conditions: A549, zVAD-fmk and Nec-1 individually or in combination
Description: Therefore, we investigated whether zVAD-fmk and Nec-1 could attenuate JH62-induced cell death in A549 lung cancer cells.

[6] = system: AML12: mouse liver cell lines; assay: WST-1 cell viability, AML12; assay type: cell-based; conditions: AML12, non-cancer cell line
Description: as §1, §2

With `CCCCCCCC/C=C/CCCc1cc(=O)c2ccccc2[nH]1` [JH62, E-2-(tridec-4-en-1-yl)-quinolin-4(1H)-one] the IC50 [1] was 44.1 ± 0.4 µM, the “genomic DNA integrity (electrophoresis)” value (A549 cells) was “genomic DNA integrity remained unchanged” and the IC50 [2] was 47.2 ± 4.8 µM. For the same molecule, the IC50 [3] was 17.2 ± 0.6 µM, the pqsH transcription [4] was “unaffected” and the “transcription of pqsA, pqsB, pqsC, pqsD, and pqsE” value [4] was “markedly upregulated”. For the same molecule, the IC50 [5] was 27.3 ± 4.9 µM, the “LC3B puncta (autophagosome formation)” value (LC3B in A549 cells) was “progressively increased both the intensity and number of LC3B puncta” and the “cell death type (reversal by zVAD-fmk and Nec-1)” value (A549 lung cancer cells) was “not associated with apoptosis or necroptosis”. The IC50 [6] was 37.1 ± 0.7 µM.
